Test results published in patent US6552006B2, “Immunomodulatory polynucleotides in treatment of an infection by an intracellular pathogen” (The Regents of the University of California, priority 2000, dated 2003).

What was measured:
[1] = tested on: IFN-γ producing CD4+ and CD8+ T cells; experiment: Intracellular IFN-γ staining and secreted IFN-γ ELISA of re-stimulated splenocytes from M. avium-infected mice; assay type: in vivo; details: ISS 50 μg/mouse; 10^7 organisms/mouse; three weeks post-infection; anti-CD3/anti-CD28 re-stimulation
Procedure: Mice were injected intradermally (i.d.) with ISS (50 μg/mouse). The control mice received M-ODN (50 μg/mouse) or PBS (50 μl/mouse). All mice were infected with 1×10^7 M. avium. Three weeks after infection, the mice were sacrificed and splenocytes from mice receiving the same treatment were pooled. Intracellular cytokine staining was performed using the Cytofix/Cytoperm kit (Pharmingen) according to the manufacturer's instructions. Briefly, the splenocytes were stimulated with anti-CD3 and anti-CD28 activating antibodies in the presence of monensin to allow intracellular IFN-γ to accumulate for 6 hrs. Next, surface CD4 and CD8 were stained for, the cells were fixed, and the plasma membranes were permeabilized, allowing for intracellular staining with anti-IFN-γ. The cells were analyzed on a FACSCalibur flow cytometer (Becton Dickenson). To study IFN-γ production, splenocytes were incubated with anti-CD3 and anti-CD28 antibodies in vitro for 24 hrs, and these supernatants were assayed for the presence of IFN-γ by sandwich ELISA (Martin-Orozco, et al. (1999) Int. Immun. 11:1111-1118).

[2] = tested on: indoleamine 2,3-dioxygenase (IDO); experiment: IDO gene transcription in mBMDM in vitro, semi-quantitative RT-PCR; assay type: cell-based, mouse; details: mBMDM treated 3 days prior to M. avium infection; 4, 8, 24 hrs after infection
Procedure: 1-4×10^6 mBMDM were treated with ISS or M-ODN. After 3 days, the cells were infected with M. avium for 2 hrs. At 2, 24, and 48 hrs after infection, the M. avium-infected macrophages were lysed and total RNA was isolated using the Trizol Reagent (Gibco BRL). The induction of IDO gene transcription was measured by semi-quantitative […]. First-strand cDNA preparation and PCR amplification was carried out using the SuperScript Pre-amplification System (Gibco BRL) and AdvanTaq Plus DNA polymerase (Clontech, San Francisco, Calif.), respectively. PCR products were visualized by electrophoresis on 2% agarose gels. The primer sequences used were as follows:
For in vitro studies mBMDM were treated with ISS for 3 days prior to M. avium infection. Then, cells were lysed at 4, 8, and 24 hrs after infection, total RNA was extracted, and semi-quantitative RT-PCR was performed.

5′-TGACTGTGAACGTTCGAGATGA-3′ (SEQ ID NO:1) [ISS]
frequency of infection-specific IFN-γ positive CD4+ or CD8+ T cells [1]: did not further increase | optimal induction of IDO gene transcription [2]: require both treatment with ISS and M. avium infection
